Assays:
[1] = system: patients with muscle disorders that occurred with aging; test: tablets given to aged patients with muscle disorders (walking difficulties, proctoptosia, backaches, limb pains); format: in vivo, human; conditions: single regular dose of drugs admixed with one of the substances, without curcumin
Text: In Western medicine, it has been understood that proctoptosia and leg, lumbus and arm aches are attributable only to hematogenous disorders and resultant inflammation at local sites. […] Thus, it can be understood that these disorders are attributed to insufficient communication of brain commands to local sites and therefore the hematogenous disorders and onset of inflammation are problems caused by abnormal motions of muscles due to incomplete communication of brain commands.

[2] = system: adrenaline secretion; test: animal experiments using mice: secretomotory action on adrenaline, seen as blood glucose elevation; format: in vivo
Text: No studies have been conducted on the efficacy of curcumin, zingerone, or shogaol on the stimulation of adrenaline secretion.

Row | Structure (SMILES) | amelioration of proctoptosia and leg, lumbus and arm aches [1] | blood glucose levels (secretomotory action on adrenaline) [2]
1 | C[C@H](CCC(=O)O)[C@H]1CC[C@H]2[C@@H]3[C@H](O)C[C@@H]4C[C@H](O)CC[C@]4(C)[C@H]3C[C@H](O)[C@]12C [cholic acid] | not significantly ameliorated | –
2 | CCCCC/C=C/C(=O)CCc1ccc(O)c(OC)c1 [shogaol, (6)-shogaol] | – | remarkably elevated
3 | C[C@H](CC[C@@H](O)C(CO)CO)C1CCC2C3C(C[C@H](O)[C@@]21C)[C@@]1(C)CC[C@@H](O)CC1C[C@H]3O (some centres unmarked) [scymnol, Scymnol] | not significantly ameliorated | –
4 | COc1cc(/C=C/C(=O)/C=C(O)/C=C/c2ccc(O)c(OC)c2)ccc1O [curcumin] | – | remarkably elevated
5 | COc1cc(CCC(C)=O)ccc1O [zingerone] | – | remarkably elevated

From US20050058733A1, “Health food products” (Daicho Kikaku Incorporated Company, priority 2001, published 2005)
